Source: patent US10118922B2 (Janssen Pharmaceutica NV, priority 2013, dated 2018)

What was measured:
C57bl/6J Mice = assay: GPR120 C57bl6 mouse IPGTT; assay type: in vivo; settings: dosed 30 min prior to glucose IP 1.5 g/kg
Protocol: (§1) Male, C57bl/6J Mice were ordered in at 8 weeks of age from Jackson Labs. Individual mice weighed anywhere in the range of 25-30 grams on study day. The mice were fasted, with removal of food occurring at 7 am on the morning of the study. Animals were moved into the room at 10:00 am, to give them time to acclimate. Glucose (insulin syringes) was drawn up either the night before or the morning of the study. Glucose was dosed (IP) at 1.5 g/kg at 7.5 ml/kg (20% glucose straight TEKNOVA, 250 ml sterile bottle w/ catalogue number G0525). Test compounds were kept spinning and were only drawn into the syringes prior to study commencement. Animals were bled via tail snip to determine basal glucose levels prior to dosing of treatments. An Ascensia BREEZE Blood Glucose Monitoring System by Bayer (using unique 10-test disks) was used for determining glucose levels. The bleeds started at approximately 12:45 pm and dosing started, at 1-minute intervals, immediately after. All groups were dosed 30 minutes prior to glucose administration at a dose volume of 10 ml/kg (the dose volume was calculated separately for each individual animal). Thirty minutes after the first dose animals were bled again for a second baseline, or T=0, and immediately dosed with glucose via an i.p. injection. The exact dose volume for glucose was also calculated separately for each individual animal. Glucose measurements were taken at −30 min prior to compound dose, at t=0 (immediately prior to glucose dose), and at 15, 30, 45, 60, 90 min post glucose dose.
(§2) Glucose values were entered into an Excel sheet and graphed in GraphPad Prism. The following were calculated from Prism: Change from −30 to 0 BSLN Glucose, Raw Glucose AUC −30 to 90 min, Delta Glucose AUC −30 to 90 min, Raw Glucose AUC 0 to 90 min, Delta Glucose AUC 0 to 90 min.

C57b16 mouse = C57b16 mouse OGTT; assay type: in vivo; settings: dosed 30 min prior to glucose PO 3 g/kg
Protocol: as §1, §2
The assay design is the same as that described above for the C57b16 mouse IPGTT. The difference is that glucose was dosed PO at 3 g/kg, 7.5 ml/kg of 40% glucose.

SMILES | C57 IPGTT 3 mg/kg (C57bl/6J Mice) | C57 IPGTT 10 mg/kg (C57bl/6J Mice) | C57 OGTT 3 mg/kg (C57b16 mouse)
Cc1c(CCC(=O)O)ccc(OCc2c(-c3ccc(Cl)cc3)nsc2C(F)(F)F)c1C [Cpd 142, 3-(4-((3-(4-chlorophenyl)-5-(trifluoromethyl)isothiazol-4-yl)methoxy)-2,3-dimethylphenyl)propanoic acid] | −34 | −61 | −49
OCCCc1cc(F)c(OCc2c(-c3ccc(Cl)cc3)csc2C(F)(F)F)c(F)c1 [Cpd 46, 3-(4-[[4-(4-chlorophenyl)-2-(trifluoromethyl)thiophen-3-yl]methoxy]-3,5-difluorophenyl)propan-1-ol] | −26 | −75 | −49
OCCCc1cc(F)c(OCc2c(-c3ccc(Cl)cc3)nsc2C(F)(F)F)c(F)c1 [Cpd 100, 3-(4-[[3-(4-chlorophenyl)-5-(trifluoromethyl)-1,2-thiazol-4-yl]methoxy]-3,5-difluorophenyl)propan-1-ol] | – | −42 | −39
COc1ccc(-c2csc(C(F)(F)F)c2COc2c(F)cc(CCC(=O)O)cc2F)cn1 [Cpd 42, 3-(3,5-difluoro-4-((4-(6-methoxypyridin-3-yl)-2-(trifluoromethyl)thiophen-3-yl)methoxy)phenyl)propanoic acid] | −14 | – | −44
COc1ccc(-c2csc(C(F)(F)F)c2COc2c(F)cc(CCCO)cc2F)cn1 [Cpd 38, 3-(3,5-difluoro-4-((4-(6-methoxypyridin-3-yl)-2-(trifluoromethyl)thiophen-3-yl)methoxy)phenyl)propan-1-ol] | −9 | – | −44
CCc1ccc(-c2snc(Cl)c2COc2ccc(CCC(=O)O)c(C)c2C)cc1 [Cpd 85, 3-(4-[[3-chloro-5-(4-ethylphenyl)-1,2-thiazol-4-yl]methoxy]-2,3-dimethylphenyl)propanoic acid] | −29 | −48 | −49
